# Measurements from ChEMBL document CHEMBL1122962, “Molecular interactions of toxic chlorinated dibenzo-p-dioxins and dibenzofurans with thyroxine binding prealbumin” (J Med Chem, 1985).
# Biological target: Transthyretin (Homo sapiens) (UniProt P02766)
# Assay: Relative binding affinity against prealbumin in competition binding assay and expressed as relative to L-T4 (100)
row,SMILES,Binding affinity
1,O=C(O)CCCCC(=O)Nc1cc(Cl)cc2c1oc1cc(Cl)c(Cl)cc12,0.32
2,O=C(O)CCCCC(=O)Nc1cc(Cl)cc2c1Oc1cc(Cl)c(Cl)cc1O2,15
3,Oc1c(I)cc(I)cc1I,384
4,N[C@@H](Cc1cc(I)c(Oc2cc(I)c(O)c(I)c2)c(I)c1)C(=O)O,100
